The assay concerns the target T1, hMAGL (Homo sapiens, UniProt Q99685).
T1 sequence (Q99685 1-303): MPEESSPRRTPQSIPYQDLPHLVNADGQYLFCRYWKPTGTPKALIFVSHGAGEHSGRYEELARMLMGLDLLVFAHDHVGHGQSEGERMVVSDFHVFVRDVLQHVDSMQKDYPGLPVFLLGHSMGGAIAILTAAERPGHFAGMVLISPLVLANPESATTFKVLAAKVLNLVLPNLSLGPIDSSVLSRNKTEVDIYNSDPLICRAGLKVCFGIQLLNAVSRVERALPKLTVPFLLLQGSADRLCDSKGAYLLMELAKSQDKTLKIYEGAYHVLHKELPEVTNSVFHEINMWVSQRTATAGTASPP
In words: 2-AG assay: MAGL inhibition, hydrolysis of 2-arachidonoylglycerol to arachidonic acid followed by mass spectrometry. It is filed as biochemical. The gist of the method:
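MAGL preincubated with compound 15 min at RT in 50 mM Tris, 1 mM EDTA, 0.01% Tween-20, 2.5% DMSO; reaction started with 8 μM 2-AG (final), […], 30 min at RT. Quenched with acetonitrile containing d8-arachidonic acid; arachidonic acid quantified by RapidFire SPE-triple quad MS as arachidonic acid/d8 ratio.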
Broadly, the IC50 is the concentration at which inhibition is half-maximal. Low values mean higher potency, high ones lower potency. Regarding `O=C(N1CC2(CC(Cc3n[nH]cc3C(F)(F)F)C2)C1)N1CC2(CC(n3cnc(C(F)(F)F)n3)C2)C1` [Example 129, [6-[[4-(trifluoromethyl)-1H-pyrazol-3-yl]methyl]-2-azaspiro[3.3]heptan-2-yl]-[6-[3-(trifluoromethyl)-1,2,4-triazol-1-yl]-2-azaspiro[3.3]heptan-2-yl]methanone], the IC50 was 0.31 nM.
Turning to `Cc1cc(C2CC2)n(CC2CC3(C2)CN(C(=O)N2CC4(CC(n5cnc(C(F)(F)F)n5)C4)C2)C3)n1` [Example 131, [6-[(5-cyclopropyl-3-methyl-pyrazol-1-yl)methyl]-2-azaspiro[3.3]heptan-2-yl]-[6-[3-(trifluoromethyl)-1,2,4-triazol-1-yl]-2-azaspiro[3.3]heptan-2-yl]methanone], the IC50 was found to be 1.08 nM.
Consider `Cc1cc(C2CC2)n(CC2CC3(C2)CN(C(=O)N2CC4(CC(n5cnc(C6CC6)n5)C4)C2)C3)n1` [Example 132, [6-[(5-cyclopropyl-3-methyl-pyrazol-1-yl)methyl]-2-azaspiro[3.3]heptan-2-yl]-[6-(3-cyclopropyl-1,2,4-triazol-1-yl)-2-azaspiro[3.3]heptan-2-yl]methanone], for which the IC50 was 0.29 nM.
Consider `Cc1cc(C2CC2)n(CC2CC3(C2)CN(C(=O)N2CC4(CC(n5cnc(C6(O)CC6)n5)C4)C2)C3)n1` [Example 133, [6-[(5-cyclopropyl-3-methyl-pyrazol-1-yl)methyl]-2-azaspiro[3.3]heptan-2-yl]-[6-[3-(1-hydroxycyclopropyl)-1,2,4-triazol-1-yl]-2-azaspiro[3.3]heptan-2-yl]methanone], for which the IC50 is 4.54 nM.
For `Cc1cc(C2CC2)nn1CC1CC2(C1)CN(C(=O)N1CC3(CC(n4cnc(C(F)(F)F)n4)C3)C1)C2` [Example 134, [6-[(3-cyclopropyl-5-methyl-pyrazol-1-yl)methyl]-2-azaspiro[3.3]heptan-2-yl]-[6-[3-(trifluoromethyl)-1,2,4-triazol-1-yl]-2-azaspiro[3.3]heptan-2-yl]methanone], the IC50 was determined as 1.07 nM.
As for `Cc1cc(C2CC2)nn1CC1CC2(C1)CN(C(=O)N1CC3(CC(n4cnc(C5CC5)n4)C3)C1)C2` [Example 135, [6-[(3-cyclopropyl-5-methyl-pyrazol-1-yl)methyl]-2-azaspiro[3.3]heptan-2-yl]-[6-(3-cyclopropyl-1,2,4-triazol-1-yl)-2-azaspiro[3.3]heptan-2-yl]methanone], the figure is 0.23 nM.
Regarding `Cc1cc(C2CC2)nn1CC1CC2(C1)CN(C(=O)N1CC3(CC(n4cnc(C5(O)CC5)n4)C3)C1)C2` [Example 136, [6-[(3-cyclopropyl-5-methyl-pyrazol-1-yl)methyl]-2-azaspiro[3.3]heptan-2-yl]-[6-[3-(1-hydroxycyclopropyl)-1,2,4-triazol-1-yl]-2-azaspiro[3.3]heptan-2-yl]methanone], inhibition was half-maximal at 5.53 nM (IC50).
Regarding `Cn1nc(CC2CC3(C2)CN(C(=O)N2CC4(CC(n5cnc(C6(O)CC6)n5)C4)C2)C3)c(C(F)(F)F)n1` [Example 137], 2.4 nM corresponded to half-maximal inhibition (IC50).
Compound `O=C(N1CC2(CC(Cc3nc(C(F)(F)F)no3)C2)C1)N1CC2(CC(n3cnc(C4(O)CC4)n3)C2)C1` [Example 138] returned an IC50 of 18.1 nM.
The compound `O=C(N1CC2(CC(Cc3cc(C(F)(F)F)nn3CC(F)(F)F)C2)C1)N1CC2(CC(n3cnc(C4(O)CC4)n3)C2)C1` [Example 139] registered an IC50 of 2.08 nM.
For `O=C(N1CC2(CC(Cc3cc(C(F)(F)F)nn3CC(F)(F)F)C2)C1)N1CC2(CC(n3cnc(C(F)(F)F)n3)C2)C1` [Example 140, [6-[[2-(2,2,2-trifluoroethyl)-5-(trifluoromethyl)pyrazol-3-yl]methyl]-2-azaspiro[3.3]heptan-2-yl]-[6-[3-(trifluoromethyl)-1,2,4-triazol-1-yl]-2-azaspiro[3.3]heptan-2-yl]methanone], the midpoint of inhibition, the IC50, lay at 0.47 nM.
In the case of `O=C(N1CC2(CC(Cn3ccc(C4CC4)n3)C2)C1)N1CC2(CC(n3cnc(C(F)(F)F)n3)C2)C1` [Example 142, [6-[(3-cyclopropylpyrazol-1-yl)methyl]-2-azaspiro[3.3]heptan-2-yl]-[6-[3-(trifluoromethyl)-1,2,4-triazol-1-yl]-2-azaspiro[3.3]heptan-2-yl]methanone] it was 0.94 nM.
In turn, `O=C(N1CC2(CC(Cn3ccc(C4CC4)n3)C2)C1)N1CC2(CC(n3cnc(C4CC4)n3)C2)C1` [Example 143, [6-[(3-cyclopropylpyrazol-1-yl)methyl]-2-azaspiro[3.3]heptan-2-yl]-[6-(3-cyclopropyl-1,2,4-triazol-1-yl)-2-azaspiro[3.3]heptan-2-yl]methanone] returned an IC50 of 0.38 nM.
Regarding `O=C(N1CC2(CC(Cn3cc(CC(F)(F)F)cn3)C2)C1)N1CC2(CC(n3cnc(C4(O)CC4)n3)C2)C1` [Example 144, [6-[3-(1-hydroxycyclopropyl)-1,2,4-triazol-1-yl]-2-azaspiro[3.3]heptan-2-yl]-[6-[[4-(2,2,2-trifluoroethyl)pyrazol-1-yl]methyl]-2-azaspiro[3.3]heptan-2-yl]methanone], the IC50 was determined as 6.75 nM.
Take `O=C(N1CC2(CC(Cn3ccnc3C(F)(F)F)C2)C1)N1CC2(CC(c3cc(C4CC4)n[nH]3)C2)C1` [Example 145, [6-(3-cyclopropyl-1H-pyrazol-5-yl)-2-azaspiro[3.3]heptan-2-yl]-[6-[[2-(trifluoromethyl)imidazol-1-yl]methyl]-2-azaspiro[3.3]heptan-2-yl]methanone]: the IC50 was determined as 0.4 nM.
`O=C(N1CC2(CC(Cn3ccnc3C(F)(F)F)C2)C1)N1CC2(CC(n3cnc(C4(O)CC4)n3)C2)C1` [Example 146] gave an IC50 of 14.8 nM.
Regarding `O=C(N1CC2(CC(c3cc(C4CC4)n[nH]3)C2)C1)N1CC2(CN(Cc3ncc(C(F)(F)F)s3)C2)C1` [Example 147, [6-(3-cyclopropyl-1H-pyrazol-5-yl)-2-azaspiro[3.3]heptan-2-yl]-[6-[[5-(trifluoromethyl)thiazol-2-yl]methyl]-2,6-diazaspiro[3.3]heptan-2-yl]methanone], the IC50 worked out at 1.04 nM.
For `O=C(N1CC2(CC(n3cnc(C4(O)CC4)n3)C2)C1)N1CC2(CN(Cc3ncc(C(F)(F)F)s3)C2)C1` [Example 148, [6-[3-(1-hydroxycyclopropyl)-1,2,4-triazol-1-yl]-2-azaspiro[3.3]heptan-2-yl]-[6-[[5-(trifluoromethyl)thiazol-2-yl]methyl]-2,6-diazaspiro[3.3]heptan-2-yl]methanone], the IC50 was 10.8 nM.
For the compound `O=C(N1CC2(CC(n3cnc(C(F)(F)F)n3)C2)C1)N1CC2(CN(Cc3ncc(C(F)(F)F)s3)C2)C1` [Example 149], the IC50 was 1.78 nM.
Take `O=C(N1CC2(CC(n3cnc(C4CC4)n3)C2)C1)N1CC2(CN(Cc3ncc(C(F)(F)F)s3)C2)C1` [Example 150, [6-(3-cyclopropyl-1,2,4-triazol-1-yl)-2-azaspiro[3.3]heptan-2-yl]-[6-[[5-(trifluoromethyl)thiazol-2-yl]methyl]-2,6-diazaspiro[3.3]heptan-2-yl]methanone]: the IC50 is 1.52 nM.
The compound `O=C(N1CC2(CC(c3cc(C4CC4)n[nH]3)C2)C1)N1CC2(CN(Cc3cc(C(F)(F)F)ns3)C2)C1` [Example 151, [6-(3-cyclopropyl-1H-pyrazol-5-yl)-2-azaspiro[3.3]heptan-2-yl]-[6-[[3-(trifluoromethyl)isothiazol-5-yl]methyl]-2,6-diazaspiro[3.3]heptan-2-yl]methanone] had an IC50 of 2.12 nM.

The record behind these values is patent publication US20260374756A1, “HETEROCYCLIC COMPOUNDS AS INHIBITORS OF MONOACYLGLYCEROL LIPASE (MAGL)” (Hoffmann-La Roche Inc., priority 2022, published 2026).
